Data as given in PMC8662641, “Site-Specific Labeling of Endogenous Proteins Using CoLDR Chemistry” (Journal of the American Chemical Society, 2021).

Tests used:
[1] = biological target: BTK (Homo sapiens, UniProt Q06187); assay: In-gel fluorescence labeling profile in Mino cells; details: 2 h incubation, in-gel fluorescence
[2] = biological target: BTK kinase domain (Homo sapiens, UniProt Q06187); assay: Time-dependent labeling of BTK, kinact and Ki of 1b; assay type: binding; design: BTK kinase domain was expressed and purified as previously reported; made in house
Chain of BTK kinase domain (Q06187 402-655 limits assumed): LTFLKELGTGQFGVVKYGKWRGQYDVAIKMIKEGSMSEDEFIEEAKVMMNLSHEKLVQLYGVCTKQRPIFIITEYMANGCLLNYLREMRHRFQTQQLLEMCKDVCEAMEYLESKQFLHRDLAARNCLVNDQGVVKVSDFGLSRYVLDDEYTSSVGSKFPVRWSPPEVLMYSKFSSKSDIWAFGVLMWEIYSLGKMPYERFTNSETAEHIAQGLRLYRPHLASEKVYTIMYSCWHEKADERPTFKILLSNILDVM
Experimental: To assess the kinetic parameters of labeling, we performed a time-dependent incubation experiment of BTK (200 nM) with various concentrations of 1b (300–2000 nM, 20 mM Tris, pH 8, 14 °C; […]. page 9:
Figure S5. Determination of kinact and Ki parameters of CoLDR probe 1b. A. Depletion of unlabelled BTK (200 nM) […]
reaction was monitored by LC-MS. B. The rate constants as extrapolated from A. as a function of the concentration […]
(1 picture or pasted object on this page, not shown here)
Analysis was done using MaxQuant 1.6.3.4. The sequence of BTK was used for the analysis. The digestion enzyme was set to Trypsin with a maximum number of missed cleavages of 0.
Carbamidomethyl and the modification by the molecule were included as variable modifications on cysteine. The “Re-quantify” option was enabled. Contaminants were included. […] The triplicate measured for each compound (or for DMSO-treated protein) was analyzed separately.
Following MaxQuant analysis, only fully cleaved peptides were quantified and cysteine-containing peptides that were not modified by either iodoacetamide or compound were ignored.
The intensity for each peptide was calculated as the average of the three triplicates. […]
from the stock solution. […] The labeling percentage for a compound was determined as the labeling of a specific compound (alone or together with other compounds) divided by the overall detected protein species. […]

Chain of BTK (Q06187 whole entry, the tested form may be a part): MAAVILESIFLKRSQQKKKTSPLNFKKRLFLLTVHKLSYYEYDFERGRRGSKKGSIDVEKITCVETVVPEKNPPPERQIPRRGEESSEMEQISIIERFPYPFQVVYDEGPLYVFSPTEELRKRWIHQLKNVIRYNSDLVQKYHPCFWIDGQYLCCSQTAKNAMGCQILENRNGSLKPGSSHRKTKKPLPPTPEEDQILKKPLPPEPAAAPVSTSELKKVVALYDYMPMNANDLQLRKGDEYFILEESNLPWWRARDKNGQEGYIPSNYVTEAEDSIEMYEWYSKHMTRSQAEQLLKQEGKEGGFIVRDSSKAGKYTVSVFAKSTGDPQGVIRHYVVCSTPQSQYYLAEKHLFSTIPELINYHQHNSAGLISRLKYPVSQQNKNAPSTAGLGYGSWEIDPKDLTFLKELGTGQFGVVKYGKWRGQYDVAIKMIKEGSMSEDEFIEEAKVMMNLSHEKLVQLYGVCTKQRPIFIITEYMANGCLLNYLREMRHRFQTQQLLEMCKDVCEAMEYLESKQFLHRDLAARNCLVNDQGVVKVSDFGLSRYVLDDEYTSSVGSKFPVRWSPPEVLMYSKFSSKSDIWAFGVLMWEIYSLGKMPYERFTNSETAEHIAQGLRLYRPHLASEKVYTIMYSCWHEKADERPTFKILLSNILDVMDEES

reversible binding component weaker than ibrutinib ([2]; 1b Ki compared with reported ibrutinib Ki): about 5 fold
kinact ([2]; BTK 200 nM, 1b 300–2000 nM, 20 mM Tris, pH 8, 14 °C): 0.0278 s⁻¹
Compound: C#CCCNC(=O)C(=C)CN1CCC[C@@H](n2nc(-c3ccc(Oc4ccccc4)cc3)c3c(N)ncnc32)C1 [1b]
labeling of BTK in live Mino cells [1]: robust labeling even at a concentration of 10 nM
